Key:
[1] = test system: Hepatitis B virus; experiment: Inhibition of HBV recombinant Cp149 expressed in Escherichia coli BL21 (DE3) assessed as inhibition of capsid assembly at 0.1 uM incubated for 1 hr by immune blotting analysis relative to control
[2] = test system: Hepatitis B virus; experiment: Inhibition of HBV recombinant Cp149 expressed in Escherichia coli BL21 (DE3) assessed as inhibition of capsid assembly at 1 uM incubated for 1 hr by immune blotting analysis relative to control
[3] = test system: Hepatitis B virus; experiment: Antiviral activity against Human hepatitis B virus in Huh-7 cells assessed as reduction in intracellular viral DNA level incubated for 36 hrs by qPCR analysis; format: functional, organism-based; details: Huh-7, 36 h
[4] = test system: Hepatitis B virus; experiment: Inhibition of HBV recombinant Cp149 expressed in Escherichia coli BL21 (DE3) assessed as inhibition of capsid assembly at 10 uM incubated for 1 hr by immune blotting analysis relative to control
[5] = biological target: CYP2D6 (Homo sapiens, UniProt P10635); experiment: Inhibition of human recombinant CYP2D6 using quinidine […] at 10 uM by fluorometric assay; format: ADME
Sequence of CYP2D6 (P10635 whole entry): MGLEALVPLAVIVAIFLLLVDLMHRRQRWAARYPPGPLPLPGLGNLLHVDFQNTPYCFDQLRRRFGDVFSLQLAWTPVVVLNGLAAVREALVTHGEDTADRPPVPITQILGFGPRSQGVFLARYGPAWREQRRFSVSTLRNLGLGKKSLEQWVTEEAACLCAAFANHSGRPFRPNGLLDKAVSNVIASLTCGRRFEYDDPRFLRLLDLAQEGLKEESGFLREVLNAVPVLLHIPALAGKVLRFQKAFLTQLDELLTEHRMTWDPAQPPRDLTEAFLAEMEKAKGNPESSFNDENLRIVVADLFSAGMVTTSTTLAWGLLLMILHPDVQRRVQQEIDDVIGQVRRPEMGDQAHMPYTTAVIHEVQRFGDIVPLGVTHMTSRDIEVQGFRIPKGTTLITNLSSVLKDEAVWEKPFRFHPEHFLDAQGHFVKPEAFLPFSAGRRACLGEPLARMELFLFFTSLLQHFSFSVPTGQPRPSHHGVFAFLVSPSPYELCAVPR

[6] = biological target: T1, CYP1A2 (Homo sapiens, UniProt P05177); experiment: Inhibition of human recombinant CYP1A2 using alpha-naphthoflavone […] at 10 uM by fluorometric assay; format: ADME
T1 sequence (P05177 whole entry): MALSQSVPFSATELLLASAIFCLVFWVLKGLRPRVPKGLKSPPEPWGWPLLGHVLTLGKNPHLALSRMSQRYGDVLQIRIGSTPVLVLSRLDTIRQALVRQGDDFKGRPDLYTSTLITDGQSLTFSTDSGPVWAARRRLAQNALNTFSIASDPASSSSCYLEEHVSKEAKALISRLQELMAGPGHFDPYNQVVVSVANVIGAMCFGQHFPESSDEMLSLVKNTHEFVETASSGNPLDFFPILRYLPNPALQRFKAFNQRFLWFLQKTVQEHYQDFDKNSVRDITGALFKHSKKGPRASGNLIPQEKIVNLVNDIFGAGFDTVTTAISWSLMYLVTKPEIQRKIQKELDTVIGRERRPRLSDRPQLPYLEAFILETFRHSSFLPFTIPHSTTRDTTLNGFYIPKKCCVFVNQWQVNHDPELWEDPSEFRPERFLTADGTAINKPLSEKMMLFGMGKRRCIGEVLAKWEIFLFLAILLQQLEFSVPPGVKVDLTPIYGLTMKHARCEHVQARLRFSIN

[7] = biological target: hERG (KCNH2) (Homo sapiens, UniProt Q12809); experiment: Inhibition of human ERG at 40 uM incubated for 2 to 3 hrs by ligand binding assay
Sequence of hERG (KCNH2) (Q12809 whole entry): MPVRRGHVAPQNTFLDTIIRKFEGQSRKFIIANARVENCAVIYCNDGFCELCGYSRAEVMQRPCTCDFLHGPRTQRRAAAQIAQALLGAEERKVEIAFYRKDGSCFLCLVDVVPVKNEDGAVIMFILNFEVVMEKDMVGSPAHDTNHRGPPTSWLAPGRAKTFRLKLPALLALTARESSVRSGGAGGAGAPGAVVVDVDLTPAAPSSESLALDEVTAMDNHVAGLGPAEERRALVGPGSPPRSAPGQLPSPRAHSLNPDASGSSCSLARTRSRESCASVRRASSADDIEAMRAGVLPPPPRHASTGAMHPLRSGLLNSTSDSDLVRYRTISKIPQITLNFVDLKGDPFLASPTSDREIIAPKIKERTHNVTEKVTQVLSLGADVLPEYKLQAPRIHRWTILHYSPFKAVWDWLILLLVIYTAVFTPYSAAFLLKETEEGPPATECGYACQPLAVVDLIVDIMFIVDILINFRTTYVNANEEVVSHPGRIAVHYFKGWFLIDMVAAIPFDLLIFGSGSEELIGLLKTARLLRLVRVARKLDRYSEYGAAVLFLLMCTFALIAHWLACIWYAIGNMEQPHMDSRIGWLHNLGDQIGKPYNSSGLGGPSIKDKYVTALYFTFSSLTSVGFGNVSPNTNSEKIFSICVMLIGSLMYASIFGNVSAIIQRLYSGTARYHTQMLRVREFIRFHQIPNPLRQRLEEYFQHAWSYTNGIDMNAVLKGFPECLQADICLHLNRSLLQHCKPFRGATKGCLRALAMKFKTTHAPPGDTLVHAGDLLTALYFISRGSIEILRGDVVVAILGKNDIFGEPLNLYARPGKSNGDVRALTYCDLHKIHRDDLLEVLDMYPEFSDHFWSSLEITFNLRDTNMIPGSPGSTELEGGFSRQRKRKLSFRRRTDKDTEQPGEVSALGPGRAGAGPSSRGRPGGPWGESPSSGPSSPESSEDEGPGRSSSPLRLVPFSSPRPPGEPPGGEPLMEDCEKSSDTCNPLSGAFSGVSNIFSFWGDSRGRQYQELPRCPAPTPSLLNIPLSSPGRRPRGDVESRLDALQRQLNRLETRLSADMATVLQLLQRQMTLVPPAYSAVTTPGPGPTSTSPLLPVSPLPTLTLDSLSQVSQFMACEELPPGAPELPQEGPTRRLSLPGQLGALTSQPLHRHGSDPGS

[8] = biological target: CYP2C9 (Homo sapiens, UniProt P11712); experiment: Inhibition of human recombinant CYP2C9 using sulfaphenazole […] at 10 uM by fluorometric assay; format: ADME
Sequence of CYP2C9 (P11712 whole entry): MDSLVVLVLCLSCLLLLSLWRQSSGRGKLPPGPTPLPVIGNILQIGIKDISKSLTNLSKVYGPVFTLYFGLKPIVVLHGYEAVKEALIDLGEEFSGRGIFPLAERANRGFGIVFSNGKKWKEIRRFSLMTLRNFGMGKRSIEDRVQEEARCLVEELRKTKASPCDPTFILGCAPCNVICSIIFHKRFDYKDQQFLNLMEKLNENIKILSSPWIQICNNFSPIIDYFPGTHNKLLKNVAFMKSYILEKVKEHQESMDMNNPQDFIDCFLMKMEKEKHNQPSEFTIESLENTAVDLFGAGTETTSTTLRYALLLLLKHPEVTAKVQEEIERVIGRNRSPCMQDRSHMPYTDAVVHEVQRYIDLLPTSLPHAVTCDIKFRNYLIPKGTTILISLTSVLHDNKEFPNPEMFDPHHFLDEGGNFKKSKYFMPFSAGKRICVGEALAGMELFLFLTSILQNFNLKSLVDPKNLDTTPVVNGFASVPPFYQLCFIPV

[9] = Mutagenicity in Salmonella typhimurium in presence of S9 fraction by Ames test; format: toxicity, subcellular; details: salmonella enterica subsp. enterica serovar typhimurium
[10] = Metabolic stability in human liver microsomes assessed as compound remaining at […] incubated for 30 mins by LC/MS/MS analysis; format: ADME, Microsome; details: read-out: Stabilty
[11] = Permeability of the compound at pH 7.4 by PAMPA; format: ADME
[12] = Metabolic stability in mouse liver microsomes assessed as compound remaining at […] incubated for 30 mins by LC/MS/MS analysis; format: ADME, Microsome; details: read-out: Stabilty
[13] = biological target: CYP3A4 (Homo sapiens, UniProt P08684); experiment: Inhibition of human recombinant CYP3A4 using ketoconazole […] at 10 uM by fluorometric assay; format: ADME
Sequence of CYP3A4 (P08684 whole entry): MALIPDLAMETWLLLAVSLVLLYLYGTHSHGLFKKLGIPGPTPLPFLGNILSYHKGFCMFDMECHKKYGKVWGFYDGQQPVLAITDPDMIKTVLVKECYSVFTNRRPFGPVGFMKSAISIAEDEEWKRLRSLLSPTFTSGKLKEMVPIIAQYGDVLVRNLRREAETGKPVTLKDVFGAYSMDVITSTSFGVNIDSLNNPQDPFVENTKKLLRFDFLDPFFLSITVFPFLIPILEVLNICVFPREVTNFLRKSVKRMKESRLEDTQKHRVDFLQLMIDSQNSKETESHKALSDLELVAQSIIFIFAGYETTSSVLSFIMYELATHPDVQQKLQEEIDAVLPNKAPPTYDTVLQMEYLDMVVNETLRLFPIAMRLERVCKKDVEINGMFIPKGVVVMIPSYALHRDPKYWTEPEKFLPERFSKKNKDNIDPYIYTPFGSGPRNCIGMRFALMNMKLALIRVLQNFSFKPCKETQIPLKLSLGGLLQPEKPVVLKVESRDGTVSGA

[14] = biological target: CYP2C19 (Homo sapiens, UniProt P33261); experiment: Inhibition of human recombinant CYP2C19 using amitriptyline […] at 10 uM by fluorometric assay; format: ADME
Sequence of CYP2C19 (P33261 whole entry): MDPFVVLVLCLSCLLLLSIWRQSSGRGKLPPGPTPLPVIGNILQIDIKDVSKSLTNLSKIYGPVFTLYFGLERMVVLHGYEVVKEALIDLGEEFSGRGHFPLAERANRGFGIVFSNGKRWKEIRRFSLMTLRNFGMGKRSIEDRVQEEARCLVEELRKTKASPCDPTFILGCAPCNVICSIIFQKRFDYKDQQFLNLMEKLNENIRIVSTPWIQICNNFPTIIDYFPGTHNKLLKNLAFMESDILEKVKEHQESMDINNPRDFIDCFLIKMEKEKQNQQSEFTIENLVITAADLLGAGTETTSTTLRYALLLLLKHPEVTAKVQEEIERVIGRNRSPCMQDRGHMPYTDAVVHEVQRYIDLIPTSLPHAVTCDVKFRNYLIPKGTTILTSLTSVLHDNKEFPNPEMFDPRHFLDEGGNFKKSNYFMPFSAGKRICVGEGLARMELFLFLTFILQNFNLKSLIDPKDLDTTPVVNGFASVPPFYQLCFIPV

[15] = Metabolic stability in rat liver microsomes assessed as compound remaining at […] incubated for 30 mins by LC/MS/MS analysis; format: ADME, Microsome; details: read-out: Stabilty

## COc1ncccc1C(=O)NCCNc1cc(Nc2ccc(Br)cc2)nc([S+](C)[O-])n1 (stereo not given)
[1]
  inhibition: 27%
[2]
  inhibition: 82%
[3]
  IC50: 177 nM

## CS(=O)(=O)c1nc(Nc2ccc(F)c(Br)c2)cc(N2CCNCC2)n1
[1]
  inhibition: 13%
[2]
  inhibition: 98%
[3]
  IC50: 547 nM

## COc1ncccc1C(=O)NCCNc1cc(Nc2ccccc2)nc([S+](C)[O-])n1 (stereo not given)
[1]
  inhibition: 14%
[2]
  inhibition: 83%
[3]
  IC50: 484 nM

## CSc1nc(NCCNC(=O)c2cccnc2Cl)cc(Nc2ccc(N3CCOCC3)cc2)n1
[4]
  inhibition: 2%

## COc1ncccc1C(=O)NCCNc1cc(Nc2ccc(F)c(F)c2)nc([S+](C)[O-])n1 (stereo not given)
[4]
  inhibition: 38%
[3]
  IC50: > 10000 nM

## CCOC(=O)C1=C(CN2CCOCC2)NC(c2nccs2)=N[C@H]1c1ccc(F)cc1Br
[1]
  inhibition: 49%
[2]
  inhibition: 93%
[3]
  IC50: 188 nM

## COc1cncc(C(=O)NCCNc2cc(Nc3ccc(N4CCOCC4)cc3)nc(SC)n2)c1
[4]
  inhibition: 37%
[3]
  IC50: 8420 nM

## CS(=O)(=O)c1nc(Nc2ccc(F)c(Cl)c2)cc(N2CCNCC2)n1 [listing 1 of 2 here]
[5]
  inhibition at 10 µM: 45.2%
[6]
  inhibition at 10 µM: 57.4%
[7]
  inhibition at 40 µM: 14%
[8]
  inhibition at 10 µM: 64.8%
[9]
  Activity: Non-Toxic
[10]
  remaining at 0.5 h: > 99%
[11]
  log(permeability): -5.37
[12]
  remaining at 0.5 h: > 99%
[13]
  inhibition at 10 µM: 60.2%
[14]
  inhibition at 10 µM: 41.2%
[15]
  remaining at 0.5 h: > 99%
[3]
  IC50: 189 nM

## CSc1nc(NCCNC(=O)c2cccc(Cl)n2)cc(Nc2ccc(N3CCOCC3)cc2)n1
[4]
  inhibition: 0%

## CSc1nc(NCCNC(=O)c2cccnc2F)cc(Nc2ccc(N3CCOCC3)cc2)n1
[4]
  inhibition: 0%

## CS(=O)(=O)c1nc(Nc2cc(F)c(F)c(F)c2)cc(N2CCNCC2)n1
[5]
  inhibition at 10 µM: 5.76%
[6]
  inhibition at 10 µM: 23.6%
[7]
  inhibition at 40 µM: 48.7%
[8]
  inhibition at 10 µM: 85.2%
[9]
  Activity: Non-Toxic
[10]
  remaining at 0.5 h: 99.9%
[1]
  inhibition: 39%
[12]
  remaining at 0.5 h: 99.8%
[13]
  inhibition at 10 µM: 52.1%
[14]
  inhibition at 10 µM: 93.4%
[2]
  inhibition: 92%
[15]
  remaining at 0.5 h: 87.9%
[3]
  IC50: 203 nM

## CSc1nc(NCCNC(=O)c2ncc(F)cc2F)cc(Nc2ccc(N3CCOCC3)cc2)n1
[4]
  inhibition: 1%

## COc1ncccc1C(=O)NCCNc1cc(Nc2ccc(I)cc2)nc([S+](C)[O-])n1 (stereo not given)
[4]
  inhibition: 37%
[3]
  IC50: > 10000 nM

## CS(=O)(=O)c1nc(Nc2cc(F)c(F)c(F)c2)cc(Nc2cc(F)c(F)c(F)c2)n1
[4]
  inhibition: 69%
[10]
  remaining at 0.5 h: 99.9%
[12]
  remaining at 0.5 h: 99.9%
[15]
  remaining at 0.5 h: 99.9%
[3]
  IC50: 1020 nM

## C[S+]([O-])c1nc(NCCNC(=O)c2cccnc2)cc(Nc2ccc(N3CCOCC3)cc2)n1 (stereo not given)
[4]
  inhibition: 13%
[3]
  IC50: > 10000 nM

## COc1ncccc1C(=O)NCCNc1cc(Nc2ccc(F)cc2Cl)nc([S+](C)[O-])n1 (stereo not given)
[4]
  inhibition: 43%
[3]
  IC50: > 10000 nM

## CS(=O)(=O)c1nc(Nc2ccc(F)c(Br)c2)cc(NC2CCNCC2)n1
[1]
  inhibition: 7%
[2]
  inhibition: 97%
[3]
  IC50: 536 nM

## COc1ncccc1C(=O)N1CCN(c2cc(Nc3ccc(N4CCOCC4)cc3)nc(SC)n2)CC1
[4]
  inhibition: 31%
[3]
  IC50: > 10000 nM

## CS(=O)(=O)c1nc(Nc2cc(F)c(F)c(F)c2)cc(NC2CCNCC2)n1
[1]
  inhibition: 16%
[11]
  log(permeability): <= -6
[12]
  remaining at 0.5 h: 98.6%
[2]
  inhibition: 90%
[15]
  remaining at 0.5 h: 98.2%
[3]
  IC50: 190 nM

## CS(=O)(=O)c1nc(Nc2ccc(F)cc2)cc(Nc2ccc(F)cc2)n1
[4]
  inhibition: 49%
[10]
  remaining at 0.5 h: 42.8%
[12]
  remaining at 0.5 h: 37.7%
[15]
  remaining at 0.5 h: 74.4%
[3]
  IC50: 6400 nM

## COc1ncccc1C(=O)NCCNc1cc(Nc2ccc(Cl)cc2)nc([S+](C)[O-])n1 (stereo not given)
[1]
  inhibition: 27%
[2]
  inhibition: 80%
[3]
  IC50: 299 nM

## COc1ncccc1C(=O)NCCNc1cc(Nc2ccc(F)cc2)nc([S+](C)[O-])n1 (stereo not given)
[1]
  inhibition: 32%
[2]
  inhibition: 83%
[3]
  IC50: 210 nM

## COC(=O)C1=C(C)NC(c2ncc(F)cc2F)=N[C@H]1c1ccc(F)cc1Cl
[4]
  inhibition: 37%
[3]
  IC50: 205 nM

## CS(=O)(=O)c1nc(Nc2ccc(F)c(Cl)c2)cc(N2CCNCC2)n1 [listing 2 of 2 here]
[1]
  inhibition: 47%
[2]
  inhibition: 90%

## COc1ncccc1C(=O)NCCNc1cc(Nc2ccc(N3CCOCC3)cc2)nc(SC)n1
[4]
  inhibition: 23%
[10]
  remaining at 0.5 h: 58.8%
[12]
  remaining at 0.5 h: 17.8%
[15]
  remaining at 0.5 h: 49%
[3]
  IC50: > 10000 nM

## CS(=O)(=O)c1nc(Nc2ccc(F)c(Cl)c2)cc(Nc2ccc(F)c(Cl)c2)n1
[4]
  inhibition: 57%
[10]
  remaining at 0.5 h: 99.9%
[12]
  remaining at 0.5 h: 92.9%
[15]
  remaining at 0.5 h: 99.9%
[3]
  IC50: 587 nM

## CS(=O)(=O)c1nc(Nc2ccc(F)c(Cl)c2)cc(NC2CCNCC2)n1
[10]
  remaining at 0.5 h: 92.9%
[1]
  inhibition: 59%
[11]
  log(permeability): -5.46
[12]
  remaining at 0.5 h: 93.9%
[2]
  inhibition: 95%
[15]
  remaining at 0.5 h: 85.1%
[3]
  IC50: 199 nM

## COc1ncccc1C(=O)N1CCN(c2cc(Nc3ccc(N4CCOCC4)cc3)nc([S+](C)[O-])n2)CC1 (stereo not given)
[4]
  inhibition: 33%
[3]
  IC50: > 10000 nM

## CSc1nc(NCCNC(=O)c2cccnc2)cc(Nc2ccc(N3CCOCC3)cc2)n1
[4]
  inhibition: 43%
[3]
  IC50: > 10000 nM

## O=C1CC2(CCCC2)CC(=O)N1CCCCN1CCN(c2ncccn2)CC1 [BUSPIRONE]
[10]
  remaining at 0.5 h: 2.44%
[12]
  remaining at 0.5 h: 0.906%
[15]
  remaining at 0.5 h: 0.528%

## CSc1nc(NCCNC(=O)c2ccc(Cl)nc2Cl)cc(Nc2ccc(N3CCOCC3)cc2)n1
[4]
  inhibition: 5%

## CS(=O)(=O)c1nc(Nc2cc(F)c(F)c(F)c2)cc(NC2CCC(N)CC2)n1 (stereo not given)
[1]
  inhibition: 29%
[2]
  inhibition: 96%
[3]
  IC50: 292 nM

## CS(=O)(=O)c1nc(Nc2ccc(F)c(Br)c2)cc(NC2CCC(N)CC2)n1 (stereo not given)
[1]
  inhibition: 10%
[2]
  inhibition: 98%
[3]
  IC50: 480 nM

## COc1ncccc1C(=O)NCCNc1cc(Nc2ccc(N3CCOCC3)cc2)nc(S(C)(=O)=O)n1
[1]
  inhibition: 49%
[2]
  inhibition: 86%
[3]
  IC50: 198 nM

## COc1ncccc1C(=O)NCCNc1cc(Nc2ccc(N3CCOCC3)cc2)nc([S+](C)[O-])n1 (stereo not given)
[6]
  inhibition at 10 µM: 18.3%
[4]
  inhibition: 95%
[8]
  inhibition at 10 µM: 42.9%
[10]
  remaining at 0.5 h: 93.4%
[11]
  log(permeability): -5.47
[12]
  remaining at 0.5 h: 80.2%
[13]
  inhibition at 10 µM: 51.7%
[14]
  inhibition at 10 µM: 40.7%
[15]
  remaining at 0.5 h: 77.1%
[3]
  IC50: 402 nM

## COc1cncc(C(=O)NCCNc2cc(Nc3ccc(N4CCOCC4)cc3)nc([S+](C)[O-])n2)c1 (stereo not given)
[4]
  inhibition: 78%
[1]
  inhibition: 43%
[2]
  inhibition: 83%
[3]
  IC50: > 10000 nM

Reference: ChEMBL document CHEMBL4825668, “Discovery of Novel Pyrimidine-Based Capsid Assembly Modulators as Potent Anti-HBV Agents” (J Med Chem, 2021)
